According to US20090170803A1, “[…] OF […]” (priority 2002, published 2009):
Entries after “also recorded” stand apart in the source; their conditions may differ.

Legend:
E. Coli = test: Mice injected with live E. Coli and treated with ceftriaxone, survival; type: in vivo; conditions: 20 million E. Coli IP at time 0; ceftriaxone once at time 0; 50 μg/kg ATL146e 8 times at 6 hour intervals
IL-6 = system: IL-6; set-up: species or system C57BL/6 mice; conditions: mouse, in vivo, ip
human PMNL = test: Preliminary in vitro studies: effects of A2AAR agonists on phagocytic cells (human PMNL); type: cell-based
human monocytes = test: Inhibition of LPS-stimulated human monocyte TNF production; type: cell-based
A2A-KO mice = test: Murine septic shock model in A2A-KO mice; type: in vivo; conditions: 5 μg/kg, four doses at six hour intervals beginning 12 hours after LPS 12.5 mg/kg
C57BL/6 mice = test: Murine model of endotoxin-induced septic shock (E. coli 026:B6 LPS), mortality; type: in vivo; set-up: protection of mice from E. Coli 026:B6 LPS-induced endotoxemia, dose response (FIG. 1): dose or concentration left out as unconfirmed
RANTES = system: RANTES; set-up: species or system C57BL/6 mice; conditions: mouse, in vivo
neutrophils in kidneys = system: neutrophils in kidneys; set-up: species or system C57BL/6 mice; conditions: mouse, in vivo, ip

`CCNC(=O)[C@H]1O[C@@H](n2cnc3c(N)nc(C#CCC4CCC(C(=O)OC)CC4)nc32)C(O)C1O` (stereo in doubt) [ATL146e, 4-{3-[6-Amino-9-(5-ethylcarbamoyl-3,4-dihydroxy-tetrahydro-furan-2-yl)-9H-purin-2-yl]-prop-2-ynyl}cyclohexanecarboxylic acid methyl ester] was tested, and the “survival of mice injected with live E. Coli and treated with ceftriaxone, compared to antibiotic alone (FIG. 6)” value (E. Coli) was “increases survival”, the “renal IL-6 levels, relative to those from mice exposed to LPS/Stx2 (FIG. 7)” value (IL-6) was “approximately 16%” and the “effects on phagocytic cells in vitro and in animal models of acute inflammation” value (human PMNL) was “potent agonists and provide anti-inflammatory responses”. For the same compound, the “inhibition of LPS-stimulated human monocyte TNF production, potency comparison” value (human monocytes) was “more potent than CGS21680”, the “protective effect in A2A-KO mice relative to wild type” value (A2A-KO mice) was “less protection; also recorded: completely lost” and the “protection from death (FIG. 2)” value (C57BL/6 mice; 5 μg/kg i.p. at 6-hour intervals for 24 hours beginning simultaneously with LPS 12.5 mg/kg, p=0.0002) was “protection from death”. The “protection from death after a delay in the onset of therapy (FIG. 3)” value (C57BL/6 mice; 5 μg/kg i.p. at six hour intervals, four doses, delay of 24 hours following LPS challenge (12.5 mg/kg)) was “protection from death”, the “protection of mice from E. Coli 026:B6 LPS-induced endotoxemia, dose response (FIG. 1)” value (C57BL/6 mice; IP one hour prior to LPS and at 6 hour intervals, 8 doses/48 hours) was “dose dependent response” and the “protection at the highest dosages” value (C57BL/6 mice; highest dosages, LPS 12.5 mg/kg) was “complete protection”. The “survival at 4 days” value (C57BL/6 mice; highest doses, vehicle mortality 75%) was 100% and the “chemokine Renal RANTES in kidney samples (FIG. 8)” value (RANTES) was “reduction”.

`CCNC(=O)[C@H]1O[C@@H](n2cnc3c(N)nc(C#CCC4CCC(COC(C)=O)CC4)nc32)C(O)C1O` (stereo in doubt) [ATL193, Acetic acid 4-{3-[6-amino-9-(5-ethylcarbamoyl-3,4-dihydroxytetrahydrofuran-2-yl)-9H-purin-2-yl]-prop-2-ynyl}-cyclohexylmethyl Ester] was tested, and the “effects on phagocytic cells in vitro and in animal models of acute inflammation” value (human PMNL) was “potent agonists and provide anti-inflammatory responses”.

For `CCNC(=O)[C@H]1O[C@@H](n2cnc3c(N)nc(C#C[C@]4(O)CCC[C@@H](C)C4)nc32)C(O)C1O` (stereo in doubt) [ATL-203, 5-[6-Amino-2-(1-hydroxy-3-methylcyclohexylethynyl)purin-9-yl]-3,4-dihydroxytetrahydrofuran-2-carboxylic acid ethylamide], the “renal IL-6 levels, relative to those from mice exposed to LPS/Stx2 (FIG. 7)” value (IL-6) was “approximately 16%”, the “neutrophil positive glomeruli, relative to the Stx2 positive samples (FIG. 9)” value (neutrophils in kidneys) was 40% and the “chemokine Renal RANTES in kidney samples (FIG. 8)” value (RANTES) was “reduction”.

In the case of `Nc1nc(NCCc2ccc(O)cc2)nc2nc(-c3ccco3)nn12` [ZM241385, reference compound], the “block by A2AAR antagonist of the agonist effect on TNF-stimulated superoxide release” value (human PMNL; adherent PMNLs, with A2AAR agonists) is reported as “completely blocked”, the “reversal of the inhibition of monocyte TNF production by A2AAR antagonist” value (human monocytes; with ATL146e) is reported as “reversed” and the “protective efficacy of ATL146e when ZM is co-administered (FIG. 4)” value (C57BL/6 mice; ZM in equimolar concentrations (3 μg/kg) with ATL146e, six hour intervals for 24 hours beginning 12 hours after LPS) is reported as “nearly eliminated”. The “protection from death by antagonist alone (FIG. 4)” value (C57BL/6 mice; six hour intervals for 24 hours beginning 12 hours after LPS challenge) was “does not protect”.

Rolipram [reference compound] was tested, and the “accentuation of the A2AAR agonist effects on activation of PMNLs” value (human PMNL; with A2AAR agonists) was “synergistically accentuates”.
